Measurements from publication PMC11314366, “Unveiling the Catalytic Roles of DsBBS1 and DsBBS2 in the Bibenzyl Biosynthesis of Dendrobium sinense” (Molecules, 2024).

Test system: DsBBS2
Experiment: HPLC of resveratrol formed, nonlinear curve fitting
Format: biochemical, Dendrobium sinense
Settings: 0.5 mM malonyl-CoA, 50 mM Hepes, 37 °C, 30 min; p-coumaroyl-CoA 0.5-5.0 mM

## CC(C)(COP(=O)(O)OP(=O)(O)OC[C@H]1O[C@@H](n2cnc3c(N)ncnc32)[C@H](O)[C@@H]1OP(=O)(O)O)[C@@H](O)C(=O)NCCC(=O)NCCSC(=O)/C=C/c1ccc(O)cc1 [p-coumaroyl-CoA]
  Km: 2050 ± 310 µM
